Test results as given in US8183230B2, “Antimicrobial preservatives to achieve multi-dose formulation using beta-cyclodextrins for liquid dosage forms” (priority 2004, dated 2012).

Assays:
[1] = Calculated non-sequestered concentrations in formulations; settings: preferred formulation: 10 mgA/mL compound, 63 mg/mL SBE-CD, 3.3 mg/mL meta-cresol, pH 4.4
Text: These constants were used to calculate the concentration of non-sequestered meta-cresol in the formulations tested for anti-microbial efficacy.
The appearance of a plateau at the higher concentrations is only due to the limitation in the bactericidal efficacy measurement method. As the method consists in evaluating the population not killed by the preservative, when the whole population is dead (i.e. none is detectable any more ˜100%) the figure quoted is of the form: a log reduction greater than a value usually between 3 and 5.
The formulations were analyzed for preservative effectiveness.

[2] = Solubility analysis (solubility method) for binding constant with SBE-CD
Method: Traditional solubility methods were performed initially to determine the solubility and binding constants of compound of Formula Ia and preservative with SBE-CD.
Binding was calculated for meta-cresol using solubility analysis. The experiment was performed at different concentrations of compound of Formula Ia to determine if there was any effect from the presence of drug in solution on the meta-cresol binding constant. Meta-cresol solubility was measured in excess (saturated) meta-cresol and the equilibrium binding constant was calculated using the following equation:
[formula] Where St is the total solubility of meta-cresol, s0 is the inherent solubility of meta-cresol, Lt is the total concentration of SBE-CD (ligand) and K11 is the equilibrium binding constant of meta-cresol assuming a 1 to 1 binding stoichiometry.

[3] = Equilibrium dialysis method for determining binding constants
Text: In the present invention, the method to determine binding constants utilizes equilibrium dialysis in the development of a multi-use parenteral formulation containing SBE-CD and a preservative. In particular, the method was applied in developing a parenteral formulation comprising the compound of Formula Ia, a cyclodextrin (SBE-CD) and a preservative (meta-cresol). This approach is applicable to compounds other than the compound of Formula Ia in developing parenteral formulations and is within the scope of this invention. […] The significance of this procedure is its ability to measure the binding constant of multiple compounds competing for binding with the cyclodextrin. The experimental dialysis data also provides an easily interpreted representation of binding in the formulation by visualizing the degree of interaction by the equilibrium established following dialysis.
Equilibrium dialysis permits calculation of binding constants by modeling the resultant diffusion rate across a semi-permeable membrane with an equilibrium end point. Equilibrium dialysis is performed by allowing the substrate in a solution containing bound substrate and ligand in a donor compartment of an equilibrium dialysis apparatus (cell) to equilibrate over time with an acceptor compartment. Ono, N., Hirayama, F., Arima, H., Uekama, K. “Determination of Stability Constant of β-Cyclodextrin Complexes Using the Membrane Permeation Technique and the Permeation Behavior of Drug Competing Agent-β-Cyclodextrin Ternary Systems” Eur. J. Pharm. Sci. 1999 9:133-139. The acceptor cell contains no ligand. The membrane is semi-permeable allowing the typically low molecular weight substrates to freely diffuse, while the cyclodextrin (MW=2163) remains in the donor compartment. Sampling from both compartments over time yields a time-concentration profile of substrate in both the donor and acceptor compartments of the dialysis cell.
A mathematical model describing the diffusion rate of drug across the membrane can be derived for systems containing two or more components in solution. The dialysis rate and binding constant for the substrates are obtained by resolving the equation using nonlinear curve fitting software. Depending on the interactions between the components it is possible to describe the competitive binding that occurs in the solution. The equilibrium binding constant is a measure of the relative concentration of meta-cresol bound to SBE-CD according to the chemical equilibrium equation below: S=meta-cresol, L=SBE-CD. S:L indicates the complex formed between meta-cresol and SBE-CD.
The initial experiments established the equilibrium dialysis flux rates for compound of Formula Ia and meta-cresol across the 500 MWCO dialysis membrane. Three different concentrations of compound of Formula Ia were initially loaded into the donor side of the dialysis well. Samples were withdrawn at various time intervals and concentration of free component was measured using HPLC. […] The smoothed line was a fit to the data using the model for a unitary system presented in the discussion. The equilibrium point for all these control experiments was reached after 50% of the total drug was distributed uniformly across the donor and acceptor sides of the well. This asymptotic approach to equilibrium was modeled and the dialysis rates were calculated, Table II.
The primary method of analyzing the data was to perform calculations from equilibrium dialysis data, as described below. In particular, the rate of diffusion across the membrane was calculated using the following equations:
The rate of diffusion from the donor phase is defined by the following relationship: [D]t−[D]eq=([D]0−[D]eq)e^(−2kt) (1)
Rate of diffusion into the Acceptor Phase: [D]eq−[D]t=[D]eqe^(−2kt) (2) wherein
The basis of calculation in the presence of SBE-CD is to assume that complexation occurs only in the donor phase according to the standard complexation reaction:
The value for CyDF may be substituted into equation 8. […]

[4] = Stability measurements (accelerated stability); settings: 3 mg/mL meta-cresol, 100 mg/mL SBE-CD, 10 mgA/mL compound of Formula Ia
Method: Stability Measurements. Potential lead formulations were evaluated under various accelerated stability conditions in order to assess potency and purity of compound of Formula Ia, preservative content and SBE-CD content. For example, in one accelerated stability study, potential lead formulations were placed in stability ovens to measure short-term thermal stability. […] Purity and potency assays to measure compound of Formula Ia, as well as antimicrobial preservatives and SBE-CD content, were performed using validated HPLC methodology. SBE-CD was assayed using GTP 5984.

[5] = binary, approximate ratio 1:1, Compound of Formula Ia 1.0, SBE-CD 1.0 mM
[6] = binary, approximate ratio 1:2, Compound of Formula Ia 0.5, SBE-CD 1.0 mM
[7] = binary, approximate ratio 1:4, Compound of Formula Ia 0.25, SBE-CD 1.0 mM
[8] = ternary, approximate ratio 1:1, Compound of Formula Ia 1.0, Meta-cresol 1.0 mM, SBE-CD 1.0 mM
[9] = ternary, approximate ratio 1:2, Compound of Formula Ia 0.5, Meta-cresol 0.5 mM, SBE-CD 1.0 mM
[10] = ternary, approximate ratio 1:4, Compound of Formula Ia 0.25, Meta-cresol 0.25 mM, SBE-CD 1.0 mM

For `COc1ccc(C(C)(C)C)cc1CN[C@H]1C2CCN(CC2)[C@H]1C(c1ccccc1)c1ccccc1` [compound of Formula Ia], the calculated non-sequestered concentration [1] was 1.4 mg/mL, the “binding constant with SBE-CD” value [2] was 1040 M⁻¹ and the binding constant ([2]; pH 4.4) was 1040 M⁻¹. The “drug binding constant greater than preservative” value ([3]; binary systems with SBE-CD) was 13 fold, the Keq [3, 5] was 740 M⁻¹ and the k [3, 5] was 0.015 h⁻¹. The Keq [3, 6] was 1092 M⁻¹, the k [3, 6] was 0.013 h⁻¹ and the Keq [3, 7] was 1444 M⁻¹. The k [3, 7] was 0.012 h⁻¹, the “binding constant with SBE-CD” value ([3]; equilibrium dialysis method, binary systems, drug ±352 M−1, n=3, preservative ±7 M−1) was 1092 M⁻¹ and the Keq [3, 8] was 690 M⁻¹. It also gave a k [3, 8] of 0.018 h⁻¹, a Keq [3, 9] of 720 M⁻¹ and a k [3, 9] of 0.013 h⁻¹. The Keq [3, 10] was 520 M⁻¹, the k [3, 10] was 0.011 h⁻¹ and the “CONTENT (% INTENT)” value ([4]; 5° C., 1 week, Amber-Treated) was 97 % INTENT. The “CONTENT (% INTENT)” value ([4]; 5° C., 1 week, Amber-Untreated) was 96 % INTENT, the “CONTENT (% INTENT)” value ([4]; 5° C., 3 weeks, Amber-Treated) was 96 % INTENT and the “CONTENT (% INTENT)” value ([4]; 5° C., 3 weeks, Amber-Untreated) was 95 % INTENT. The “CONTENT (% INTENT)” value ([4]; 5° C., 6 weeks, Amber-Treated) was 95 % INTENT, the “CONTENT (% INTENT)” value ([4]; 5° C., 6 weeks, Amber-Untreated) was 94 % INTENT and the “CONTENT (% INTENT)” value ([4]; 5° C., 12 weeks, Amber-Treated) was 94 % INTENT. The “CONTENT (% INTENT)” value ([4]; 5° C., 12 weeks, Amber-Untreated) was 94 % INTENT, the “CONTENT (% INTENT)” value ([4]; 50° C., 1 week, Amber-Treated) was 95 % INTENT and the “CONTENT (% INTENT)” value ([4]; 50° C., 1 week, Amber-Untreated) was 96 % INTENT. The “CONTENT (% INTENT)” value ([4]; 50° C., 3 weeks, Amber-Treated) was 95 % INTENT, the “CONTENT (% INTENT)” value ([4]; 50° C., 3 weeks, Amber-Untreated) was 93 % INTENT and the “CONTENT (% INTENT)” value ([4]; 50° C., 6 weeks, Amber-Treated) was 96 % INTENT. The “CONTENT (% INTENT)” value ([4]; 50° C., 6 weeks, Amber-Untreated) was 94 % INTENT, the “CONTENT (% INTENT)” value ([4]; 50° C., 12 weeks, Amber-Treated) was 95 % INTENT and the “CONTENT (% INTENT)” value ([4]; 70° C., 1 week, Amber-Treated) was 94 % INTENT. The “CONTENT (% INTENT)” value ([4]; 70° C., 1 week, Amber-Untreated) was 94 % INTENT, the “CONTENT (% INTENT)” value ([4]; 70° C., 2 weeks, Amber-Treated) was 94 % INTENT and the “CONTENT (% INTENT)” value ([4]; 70° C., 2 weeks, Amber-Untreated) was 94 % INTENT. The “CONTENT (% INTENT)” value ([4]; 70° C., 3 weeks, Amber-Treated) was 92 % INTENT, the “CONTENT (% INTENT)” value ([4]; 70° C., 3 weeks, Amber-Untreated) was 94 % INTENT and the “CONTENT (% INTENT)” value ([4]; 70° C., 6 weeks, Amber-Treated) was 92 % INTENT. The “CONTENT (% INTENT)” value ([4]; 70° C., 6 weeks, Amber-Untreated) was 93 % INTENT, the “CONTENT (% INTENT)” value ([4]; 70° C., 12 weeks, Amber-Treated) was 93 % INTENT and the “CONTENT (% INTENT)” value ([4]; 70° C., 12 weeks, Amber-Untreated) was 93 % INTENT. For the same molecule, the “CONTENT (% INTENT)” value ([4]; ICH Photostability, 1X ICH UV/FI, Amber-Treated) was 92 % INTENT, the “CONTENT (% INTENT)” value ([4]; ICH Photostability, 1X ICH UV/FI, Amber-Untreated) was 93 % INTENT and the “loss / potency decrease” value ([4]; after 12 weeks at 70° C., relative to 1 week at 5° C.) was 3%.
